Assay results from ChEMBL document CHEMBL1201862, “PubChem BioAssay data set” (2004).
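Exposure lasted 48 hours, with cells grown in 96-well plates and compounds tested at five concentrations. The concentration for 50% growth inhibition is given as GI50.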 Calls of active or inactive are those of the source. No stated cut-off is given here; in the data, active = GI50 up to about 1.1 µM and inactive = higher.

Assays:
Experiment in all cases: inhibition of tumour cell growth, NCI panel, 48 h
HCC 2998 = tested on: HCC 2998
MDA-N = tested on: MDA-N
SW-620 = tested on: SW-620
HCT-15 = tested on: HCT-15
NCI-H23 = tested on: NCI-H23
Malme-3M = tested on: Malme-3M
SNB-19 = tested on: SNB-19
SF-539 = tested on: SF-539
KM12 = tested on: KM12
MDA-MB-435 = tested on: MDA-MB-435
TK-10 = tested on: TK-10
MOLT-4 = tested on: MOLT-4
COLO 205 = tested on: COLO 205
HL-60 = tested on: HL-60
EKVX = tested on: EKVX
NCI-H460 = tested on: NCI-H460
OVCAR-8 = tested on: OVCAR-8
786-0 = tested on: 786-0
CAKI-1 = tested on: CAKI-1
DU-145 = tested on: DU-145
K562 = tested on: K562
SF-295 = tested on: SF-295
NCI-H226 = tested on: NCI-H226
T47D = tested on: T47D
OVCAR-4 = tested on: OVCAR-4
UO-31 = tested on: UO-31
RPMI-8226 = tested on: RPMI-8226
SN12C = tested on: SN12C
UACC-257 = tested on: UACC-257
CCRF-CEM = tested on: CCRF-CEM
SNB-75 = tested on: SNB-75
SK-MEL-5 = tested on: SK-MEL-5
SK-MEL-2 = tested on: SK-MEL-2
UACC-62 = tested on: UACC-62
BT-549 = tested on: BT-549
PC-3 = tested on: PC-3
SK-MEL-28 = tested on: SK-MEL-28
NCI/ADR-RES = tested on: NCI/ADR-RES
HOP-62 = tested on: HOP-62
HCT-116 = tested on: HCT-116
OVCAR-3 = tested on: OVCAR-3
ACHN = tested on: ACHN
OVCAR-5 = tested on: OVCAR-5
A498 = tested on: A498
MDA-MB-231 = tested on: MDA-MB-231
U-251 = tested on: U-251
Hs-578T = tested on: Hs-578T
M14 = tested on: M14
SR = tested on: SR
A549 = tested on: A549
HT-29 = tested on: HT-29
HOP-92 = tested on: HOP-92
MCF7 = tested on: MCF7
NCI-H522 = tested on: NCI-H522
LOX IMVI = tested on: LOX IMVI
RXF 393 = tested on: RXF 393
SK-OV-3 = tested on: SK-OV-3
IGROV-1 = tested on: IGROV-1
SF-268 = tested on: SF-268

## CCOC(=O)c1cccc(NC(=O)CBr)c1
HCC 2998
  GI50: 2.3 µM (inactive)
MDA-N
  GI50: 1.4 µM (inactive)
SW-620
  GI50: 0.361 µM (active)
HCT-15
  GI50: 1.28 µM
NCI-H23
  GI50: 0.942 µM (active)
Malme-3M
  GI50: 1.91 µM (inactive)
SNB-19
  GI50: 4.4 µM (inactive)
SF-539
  GI50: 0.984 µM (active)
KM12
  GI50: 1.79 µM (inactive)
MDA-MB-435
  GI50: 1.1 µM (active)
TK-10
  GI50: 1.67 µM (inactive)
MOLT-4
  GI50: 0.223 µM (active)
COLO 205
  GI50: 1.72 µM (inactive)
HL-60
  GI50: 1.74 µM (inactive)
EKVX
  GI50: 1.62 µM (inactive)
NCI-H460
  GI50: 0.927 µM (active)
OVCAR-8
  GI50: 1.11 µM (active)
786-0
  GI50: 0.22 µM (active)
CAKI-1
  GI50: 0.618 µM (active)
DU-145
  GI50: 1.82 µM (inactive)
K562
  GI50: 0.362 µM (active)
SF-295
  GI50: 4.36 µM (inactive)
NCI-H226
  GI50: 0.76 µM (active)
T47D
  GI50: 1.7 µM (inactive)
OVCAR-4
  GI50: 1.53 µM (inactive)
UO-31
  GI50: 0.776 µM (active)
RPMI-8226
  GI50: 1.07 µM (active)
SN12C
  GI50: 0.458 µM (active)
UACC-257
  GI50: 1.82 µM (inactive)
CCRF-CEM
  GI50: 0.0618 µM (active)
SNB-75
  GI50: 1.74 µM (inactive)
SK-MEL-5
  GI50: 1.41 µM (inactive)
SK-MEL-2
  GI50: 1.56 µM (inactive)
UACC-62
  GI50: 1.42 µM (inactive)
BT-549
  GI50: 1.91 µM (inactive)
PC-3
  GI50: 1.55 µM (inactive)
SK-MEL-28
  GI50: 2.62 µM (inactive)
NCI/ADR-RES
  GI50: 2.04 µM (inactive)
HOP-62
  GI50: 1.73 µM (inactive)
HCT-116
  GI50: 0.664 µM (active)
OVCAR-3
  GI50: 1.39 µM (inactive)
ACHN
  GI50: 1.56 µM (inactive)
OVCAR-5
  GI50: 1.75 µM (inactive)
A498
  GI50: 3.43 µM (inactive)
MDA-MB-231
  GI50: 1.82 µM (inactive)
U-251
  GI50: 0.581 µM (active)
Hs-578T
  GI50: 2.72 µM (inactive)
M14
  GI50: 1.3 µM (inactive)
SR
  GI50: 0.206 µM (active)
A549
  GI50: 2.09 µM (inactive)
HT-29
  GI50: 1.69 µM (inactive)
HOP-92
  GI50: 1.93 µM (inactive)
MCF7
  GI50: 1.19 µM (inactive)
NCI-H522
  GI50: 0.0164 µM (active)
LOX IMVI
  GI50: 0.0904 µM (active)
RXF 393
  GI50: 1.72 µM (inactive)
SK-OV-3
  GI50: 1.85 µM (inactive)
IGROV-1
  GI50: 0.959 µM (active)

## O=C1c2ccccc2C(=O)N1CCCCNOCCCN1C(=O)c2ccccc2C1=O
HCC 2998
  GI50: > 100 µM (inactive)
MDA-N
  GI50: > 100 µM (inactive)
SF-268
  GI50: > 100 µM (inactive)
SW-620
  GI50: > 100 µM (inactive)
HCT-15
  GI50: > 100 µM
NCI-H23
  GI50: > 100 µM (inactive)
Malme-3M
  GI50: > 100 µM (inactive)
SNB-19
  GI50: > 100 µM (inactive)
KM12
  GI50: > 100 µM (inactive)
MDA-MB-435
  GI50: > 100 µM (inactive)
TK-10
  GI50: > 100 µM (inactive)
MOLT-4
  GI50: > 100 µM (inactive)
COLO 205
  GI50: > 100 µM (inactive)
EKVX
  GI50: > 100 µM (inactive)
NCI-H460
  GI50: > 100 µM (inactive)
OVCAR-8
  GI50: > 100 µM (inactive)
786-0
  GI50: > 100 µM (inactive)
CAKI-1
  GI50: > 100 µM (inactive)
DU-145
  GI50: > 100 µM (inactive)
K562
  GI50: > 100 µM (inactive)
SF-295
  GI50: > 100 µM (inactive)
NCI-H226
  GI50: > 100 µM (inactive)
T47D
  GI50: > 100 µM (inactive)
OVCAR-4
  GI50: > 100 µM (inactive)
UO-31
  GI50: > 100 µM (inactive)
RPMI-8226
  GI50: > 100 µM (inactive)
SN12C
  GI50: > 100 µM (inactive)
UACC-257
  GI50: > 100 µM (inactive)
CCRF-CEM
  GI50: > 100 µM (inactive)
SNB-75
  GI50: > 100 µM (inactive)
SK-MEL-5
  GI50: > 100 µM (inactive)
UACC-62
  GI50: > 100 µM (inactive)
BT-549
  GI50: > 100 µM (inactive)
PC-3
  GI50: > 100 µM (inactive)
SK-MEL-28
  GI50: > 100 µM (inactive)
NCI/ADR-RES
  GI50: > 100 µM (inactive)
HOP-62
  GI50: > 100 µM (inactive)
HCT-116
  GI50: > 100 µM (inactive)
OVCAR-3
  GI50: > 100 µM (inactive)
ACHN
  GI50: > 100 µM (inactive)
OVCAR-5
  GI50: > 100 µM (inactive)
A498
  GI50: > 100 µM (inactive)
MDA-MB-231
  GI50: > 100 µM (inactive)
U-251
  GI50: > 100 µM (inactive)
Hs-578T
  GI50: > 100 µM (inactive)
M14
  GI50: > 100 µM (inactive)
SR
  GI50: > 100 µM (inactive)
A549
  GI50: > 100 µM (inactive)
HT-29
  GI50: > 100 µM (inactive)
HOP-92
  GI50: > 100 µM (inactive)
MCF7
  GI50: > 100 µM (inactive)
NCI-H522
  GI50: > 100 µM (inactive)
LOX IMVI
  GI50: > 100 µM (inactive)
RXF 393
  GI50: > 100 µM (inactive)
SK-OV-3
  GI50: > 100 µM (inactive)
IGROV-1
  GI50: > 100 µM (inactive)

## Nc1nc(Cl)cc(NCC2(O)CC2)n1
HCC 2998
  GI50: > 100 µM (inactive)
MDA-N
  GI50: > 100 µM (inactive)
SF-268
  GI50: > 100 µM (inactive)
SW-620
  GI50: > 100 µM (inactive)
HCT-15
  GI50: > 100 µM
NCI-H23
  GI50: > 100 µM (inactive)
Malme-3M
  GI50: > 100 µM (inactive)
SNB-19
  GI50: > 100 µM (inactive)
SF-539
  GI50: > 100 µM (inactive)
KM12
  GI50: > 100 µM (inactive)
MDA-MB-435
  GI50: > 100 µM (inactive)
TK-10
  GI50: > 100 µM (inactive)
MOLT-4
  GI50: > 100 µM (inactive)
HL-60
  GI50: > 100 µM (inactive)
EKVX
  GI50: > 100 µM (inactive)
NCI-H460
  GI50: > 100 µM (inactive)
OVCAR-8
  GI50: > 100 µM (inactive)
786-0
  GI50: > 100 µM (inactive)
CAKI-1
  GI50: > 100 µM (inactive)
DU-145
  GI50: > 100 µM (inactive)
K562
  GI50: > 100 µM (inactive)
SF-295
  GI50: > 100 µM (inactive)
NCI-H226
  GI50: > 100 µM (inactive)
T47D
  GI50: > 100 µM (inactive)
OVCAR-4
  GI50: > 100 µM (inactive)
UO-31
  GI50: > 100 µM (inactive)
RPMI-8226
  GI50: > 100 µM (inactive)
SN12C
  GI50: > 100 µM (inactive)
UACC-257
  GI50: > 100 µM (inactive)
CCRF-CEM
  GI50: > 100 µM (inactive)
SNB-75
  GI50: > 100 µM (inactive)
SK-MEL-5
  GI50: > 100 µM (inactive)
SK-MEL-2
  GI50: > 100 µM (inactive)
UACC-62
  GI50: > 100 µM (inactive)
BT-549
  GI50: > 100 µM (inactive)
PC-3
  GI50: > 100 µM (inactive)
SK-MEL-28
  GI50: > 100 µM (inactive)
NCI/ADR-RES
  GI50: > 100 µM (inactive)
HOP-62
  GI50: > 100 µM (inactive)
HCT-116
  GI50: > 100 µM (inactive)
OVCAR-3
  GI50: > 100 µM (inactive)
ACHN
  GI50: > 100 µM (inactive)
OVCAR-5
  GI50: > 100 µM (inactive)
A498
  GI50: > 100 µM (inactive)
MDA-MB-231
  GI50: > 100 µM (inactive)
U-251
  GI50: > 100 µM (inactive)
Hs-578T
  GI50: > 100 µM (inactive)
SR
  GI50: > 100 µM (inactive)
A549
  GI50: > 100 µM (inactive)
HT-29
  GI50: > 100 µM (inactive)
HOP-92
  GI50: > 100 µM (inactive)
MCF7
  GI50: > 100 µM (inactive)
NCI-H522
  GI50: > 100 µM (inactive)
LOX IMVI
  GI50: > 100 µM (inactive)
RXF 393
  GI50: > 100 µM (inactive)
SK-OV-3
  GI50: > 100 µM (inactive)
IGROV-1
  GI50: > 100 µM (inactive)
